Measured values from US20250206758A1, “SUBSTITUTED BRIDGED RING INHIBITOR, PREPARATION METHOD THEREFOR AND APPLICATION THEREOF” (SUZHOU ZELGEN BIOPHARMACEUTICALS CO., LTD., priority 2022, published 2025).

Tests used:
[1] = test system: ERK phosphorylation in KRAS^G12D mutant cells (AGS); assay: AGS ERK phosphorylation inhibition experiment; type: cell-based; conditions: 1 hour compound, hEGF 10 minutes
Experimental: KRAS^G12D mutant cells (such as GP2D, AGS, etc.) were seeded in a 384-well plate and cultured overnight in a 37° C., 5% CO2 incubator.
200 nL of diluted compound was added with Echo 500 to a final DMSO concentration of 0.5%, and cultured in a 37° C., 5% CO2 incubator for 1 hour. Then hEGF was added for acting for 10 minutes.
The culture medium was discarded, and then cell fixative was added to fix the cells.
The cells were washed once with PBS, and then incubated with cold 100% methanol.
Methanol was removed and the cells were washed with PBS.
PBS was removed, and each well was added with Li-Cor blocking buffer, and blocked at room temperature for 1 hr.
The blocking solution was removed, and primary antibody mixture was added to each well, and incubated at […] 4° C. overnight.
The primary antibody mixture was removed, and the cells were washed by adding PBST for 3 times.
Secondary antibody mixture was added and incubated at room temperature in the dark for 45 min.
The secondary antibody mixture was removed, and the cells were washed by adding PBST for 3 times. Finally, PBST was suctioned out, and the plate was centrifuged upside down at 1000 rpm for 1 min.
The plate was read by Odyssey CLx.

[2] = test system: GP2D; assay: Cell proliferation inhibition, GP2D (CellTiter-Glo 3D, 7 days); type: cell-based; conditions: 168 h
In short: (§1)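 Cells exposed to compound (final DMSO 0.5%) in duplicate for 7 days at 37 °C, 5% CO2, then CellTiter-Glo 3D added with 20 min shaking and 2 h dark incubation before luminescence. Inhibition normalized to medium and blank controls; IC50, minimum and maximum inhibition from curve fits.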

[3] = test system: AsPC-1; assay: Cell proliferation inhibition, AsPC-1 (CellTiter-Glo 3D, 7 days); type: cell-based; conditions: Homo sapiens, ASPC1, 168 h; AsPC-1, 7 days
In short: as §1

[4] = test system: AGS; assay: Cell proliferation inhibition, AGS (CellTiter-Glo 3D, 7 days); type: cell-based; conditions: Homo sapiens, 168 h
Experimental: • (a) Resuscitating cells in T75 cell culture flask: • (b) When the cell confluence reaches 80-90%, subculturing the cells.
The diluted test compound was added to a 384-well cell culture plate with a nanoliter pipetting system, and duplicate wells were set up. An equal volume of culture medium was added to the positive control group; and an equal volume of DMSO was added to the negative control group, then centrifugation was conducted at 1000 rpm for 1 min at room temperature.
Cells were inoculated into a) 384-well culture plate, with an equal volume of cells added to the negative control group, and only an equal volume of culture medium added to the positive control group. The plate was centrifuged at 1000 rpm for 1 min at room temperature, and the final DMSO concentration of the compound was 0.5% at last. The plate was placed in a 37° C., 5% CO2 constant temperature incubator for 7 days.
20 μL/well of CellTiter-Glo® 3D to b) was added to 384-well cell culture plate, and the plate was shook at 320 rpm for 20 min in the dark, and incubated at room temperature in the dark for 2 hrs.
The luminescence value was read using an Envision multi-functional microplate reader.
The inhibition rate (IR) of the test compound was calculated using the following formula: IR (%)=(1−(RLU compound−RLU blank control)/(RLU meidum control−RLU blank control))*100%. The inhibition rates of different concentrations of compounds were calculated in Excel, and then the inhibition curves were plotted and the related parameters (including the minimum inhibition rate, maximum inhibition rate and IC50) were calculated using GraphPad Prism software.

[5] = in vivo; conditions: male, ICR, mouse, po, 30 mg/kg
Experimental: Male ICR mice, weighing 22-24 g, were fasted overnight and orally administered with 30 mg/kg of a solution of the compound of the present invention or the control compound [10% DMSO+60% PEG400+30% aqueous solution]. Blood was collected at 0.25, 0.5, 1.0, 2.0, 4.0, 6.0, 8.0, 12.0 and 24 h after administration of the compound of the present invention respectively, and the concentration of the compound of the present invention or the control compound in plasma was determined by LC/MS/MS.

SMILES	IC50 [2]	IC50 [3]	IC50 [4]	further results
C#Cc1c(F)ccc2cc(O)cc(-c3ncc4c(N5C[C@H]6CC[C@@H](C5)N6)nc(OCC56CCCN5CC5(C6)CC5(F)F)nc4c3F)c12 (single isomer, unassigned) [Example 16A]	–	–	–	IC50 [1]: 10.6 nM
C#Cc1c(F)ccc2cc(O)cc(-c3ncc4c(N5C[C@H]6CC[C@@H](C5)N6)nc(OCC56CCCN5CC5(C6)CC5(F)F)nc4c3F)c12 (single isomer, unassigned) [Example 16B]	–	–	–	IC50 [1]: 3.34 nM
C#Cc1c(F)ccc2cc(O)cc(-c3ncc4c(N5C[C@H]6CC[C@@H](C5)N6)nc(OC[C@]56CCCN5[C@@H](COC)CC6)nc4c3F)c12 [Example 1 Isomer 2A, 4-(4-((1R,5S)-3,8-diazabicyclo[3.2.1]octan-3-yl)-8-fluoro-2-((3R,7aR)-(3-(methoxymethyl)tetrahydro-1H-pyrrolizin-7a(5H)-yl)methoxy)pyridino[4,3-d]pyrimidin-7-yl)-5-ethynyl-6-fluoronaphthalen-2-ol]	–	–	–	IC50 ([1]; Homo sapiens): 19 nM
C#Cc1c(F)ccc2cc(O)cc(-c3ncc4c(N5C[C@H]6CC[C@@H](C5)N6)nc(OC[C@@]56CCCN5C[C@@]5(CC5(F)F)C6)nc4c3F)c12 [Example 16B-1, 4-(4-((1R,5S)-3,8-diazabicyclo[3.2.1]octan-3-yl)-2-(((1S,7a'S)-2,2-difluorodihydro-1′H,3′H-spiro[cyclopropan-1,2′-pyrrolizin]-7a′(5′H)-yl)methoxy)-8-fluoropyridino[4,3-d]pyrimidin-7-yl)-5-ethynyl-6-fluoronaphthalen-2-ol]	0.2 nM	1.24 nM	1.37 nM	–
N#Cc1c(N)sc2c(F)ccc(-c3ncc4c(N5CC6CCC(C5)N6)nc(OC[C@@]56CCCN5C[C@@]5(CC5(F)F)C6)nc4c3F)c12 [Example 24]	2.5 nM	62 nM	–	AUC(0-inf) [5]: 1270 ng·h/mL; AUC(0-t) [5]: 1250 ng·h/mL; Cmax [5]: 461 ng/mL; Tmax [5]: 0.5 h; half-life [5]: 4.74 h
Cc1cc(N)c(F)c(-c2ncc3c(N4C[C@H]5CC[C@@H](C4)N5)nc(OC[C@@]45CCCN4C[C@@]4(CC4(F)F)C5)nc3c2F)c1C(F)(F)F [Example 26, 3-(4-((1R,5S)-3,8-diazabicyclo[3.2.1]octan-3-yl)-2-(((1S,7a'S)-2,2-difluorodihydro-1′H,3′H-spiro[cyclopropan-1,2′-pyrrolizin]-7a′(5′H)-yl)methoxy)-8-fluoropyridino[4,3-d]pyrimidin-7-yl)-2-fluoro-5-methyl-4-(trifluoromethyl)aniline]	–	–	–	AUC(0-inf) [5]: 3770 ng·h/mL; AUC(0-t) [5]: 3380 ng·h/mL; Cmax [5]: 462 ng/mL; Tmax [5]: 0.25 h; half-life [5]: 6.97 h
Nc1cc(Cl)c(C(F)(F)F)c(-c2ncc3c(N4C[C@H]5CC[C@@H](C4)N5)nc(OC[C@@]45CCCN4C[C@@]4(CC4(F)F)C5)nc3c2F)c1 [Example 27, 3-(4-((1R,5S)-3,8-diazabicyclo[3.2.1]octan-3-yl)-2-(((1S,7a'S)-2,2-difluorodihydro-1′H,3′H-spiro[cyclopropan-1,2′-pyrrolizin]-7a′(5′H)-yl)methoxy)-8-fluoropyridino[4,3-d]pyrimidin-7-yl)-5-chloro-4-(trifluoromethyl)aniline]	0.38 nM	4.14 nM	5.24 nM	AUC(0-inf) [5]: 5650 ng·h/mL; AUC(0-t) [5]: 5090 ng·h/mL; Cmax [5]: 953 ng/mL; Tmax [5]: 0.25 h; half-life [5]: 9.32 h
Nc1cc(Cl)c(C(F)(F)F)c(-c2ncc3c(N4C[C@H]5CC[C@@H](C4)N5)nc(OC[C@@]45CCCN4C[C@@]4(CC4(F)F)C5)nc3c2F)c1F [Example 34, 3-(4-((1R,5S)-3,8-diazabicyclo[3.2.1]octan-3-yl)-2-(((1S,7a'S)-2,2-difluorodihydro-1′H,3′H-spiro[cyclopropan-1,2′-pyrrolizin]-7a′(5′H)-yl)methoxy)-8-fluoropyridino[4,3-d]pyrimidin-7-yl)-5-chloro-2-fluoro-4-(trifluoromethyl)aniline]	1.03 nM	11.1 nM	21.5 nM	–
Nc1cc(Cl)c(C(F)(F)F)c(-c2ncc3c(N4C[C@H]5CC[C@@H](C4)N5)nc(OC[C@@]45CCCN4C[C@@]4(CC4(F)F)C5)nc3c2F)c1Cl [Example 35, 3-(4-((1R,5S)-3,8-diazabicyclo[3.2.1]octan-3-yl)-2-(((1S,7a′S)-2,2-difluorodihydro-1′H,3′H-spiro[cyclopropan-1,2′-pyrrolizin]-7a′(5′H)-yl)methoxy)-8-fluoropyridino[4,3-d]pyrimidin-7-yl)-2,5-dichloro-4-(trifluoromethyl)aniline]	4.89 nM	45.7 nM	79.7 nM	–
Nc1cc(F)c(C(F)(F)F)c(-c2ncc3c(N4C[C@H]5CC[C@@H](C4)N5)nc(OC[C@@]45CCCN4C[C@@]4(CC4(F)F)C5)nc3c2F)c1Cl [Example 36, 3-(4-((1R,5S)-3,8-diazabicyclo[3.2.1]octan-3-yl)-2-(((1S,7a'S)-2,2-difluorodihydro-1′H,3′H-spiro[cyclopropan-1,2′-pyrrolizin]-7a′(5′H)-yl)methoxy)-8-fluoropyridino[4,3-d]pyrimidin-7-yl)-2-chloro-5-fluoro-4-(trifluoromethyl)aniline]	20.4 nM	167 nM	298 nM	–
Nc1cc(F)c(Cl)c(-c2ncc3c(N4C[C@H]5CC[C@@H](C4)N5)nc(OC[C@@]45CCCN4C[C@@]4(CC4(F)F)C5)nc3c2F)c1Cl [Example 37, 3-(4-((1R,5S)-3,8-diazabicyclo[3.2.1]octan-3-yl)-2-(((1S,7a'S)-2,2-difluorodihydro-1′H,3′H-spiro[cyclopropan-1,2′-pyrrolizin]-7a′(5′H)-yl)methoxy)-8-fluoropyridino[4,3-d]pyrimidin-7-yl)-2,4-dichloro-5-fluoroaniline]	> 100 nM	> 1000 nM	> 1000 nM	–
Nc1cc(-c2ncc3c(N4C[C@H]5CC[C@@H](C4)N5)nc(OC[C@@]45CCCN4C[C@@]4(CC4(F)F)C5)nc3c2F)c(C(F)(F)F)c(Cl)c1F [Example 41, 5-(4-((1R,5S)-3,8-diazabicyclo[3.2.1]octan-3-yl)-2-(((1S,7a'S)-2,2-difluorodihydro-1′H,3′H-spiro[cyclopropan-1,2′-pyrrolizin]-7a′(5′H)-yl)methoxy)-8-fluoropyridino[4,3-d]pyrimidin-7-yl)-3-chloro-2-fluoro-4-(trifluoromethyl)aniline]	1.41 nM	14.2 nM	16.6 nM	–
Cc1c(F)c(N)cc(-c2ncc3c(N4C[C@H]5CC[C@@H](C4)N5)nc(OC[C@@]45CCCN4C[C@@]4(CC4(F)F)C5)nc3c2F)c1C(F)(F)F [Example 42, 5-(4-((1R,5S)-3,8-diazabicyclo[3.2.1]octan-3-yl)-2-(((1S,7a'S)-2,2-difluorodihydro-1′H,3′H-spiro[cyclopropan-1,2′-pyrrolizin]-7a′(5′H)-yl)methoxy)-8-fluoropyridino[4,3-d]pyrimidin-7-yl)-2-fluoro-3-methyl-4-(trifluoromethyl)aniline]	0.68 nM	8.83 nM	13.9 nM	–
N#Cc1c(N)ccc(Cl)c1-c1ncc2c(N3C[C@H]4CC[C@@H](C3)N4)nc(OC[C@@]34CCCN3C[C@@]3(CC3(F)F)C4)nc2c1F [Example 51, 2-(4-((1R,5S)-3,8-diazabicyclo[3.2.1]octan-3-yl)-2-(((1S,7a'S)-2,2-difluorodihydro-1′H,3′H-spiro[cyclopropan-1,2′-pyrrolizin]-7a′(5′H)-yl)methoxy)-8-fluoropyridino[4,3-d]pyrimidin-7-yl)-6-amino-3-chlorobenzonitrile]	> 100 nM	> 1000 nM	> 1000 nM	–
Cc1c(N)cnc(C(F)(F)F)c1-c1ncc2c(N3C[C@H]4CC[C@@H](C3)N4)nc(OC[C@@]34CCCN3C[C@@]3(CC3(F)F)C4)nc2c1F [Example 54, 5-(4-((1R,5S)-3,8-diazabicyclo[3.2.1]octan-3-yl)-2-(((1S,7a'S)-2,2-difluorodihydro-1′H,3′H-spiro[cyclopropan-1,2′-pyrrolizin]-7a′(5′H)-yl)methoxy)-8-fluoropyridino[4,3-d]pyrimidin-7-yl)-4-methyl-6-(trifluoromethyl)pyridin-3-amine]	> 100 nM	> 1000 nM	> 1000 nM	–
